Laboratory results: patent US20020026052A1, “3-cyanoquinolines, 3-cyano-1,6-naphthyridines, and 3-cyano-1,7-naphthyridines as protein kinase inhibitors” (American Home Products Corporation, priority 2000, published 2002)
pIC50: −log10 of the molar value. Several values for one entry are separate records, joined by “and”; a condition that tells them apart may be missing. Equal entries are not always repeated.

Experiments:
Src = Src (Homo sapiens, UniProt P12931); experiment: c-Src Kinase Assay (ELISA); assay type: biochemical
Experimental: Inhibitors of Src (partially purified preparation purchased from Upstate Biotechnologies) tyrosine kinase activity are analyzed in an ELISA format. […] Horseradish Peroxidase (HRP)-conjugated anti-phosphotyrosine is used to detect phosphorylated peptide via a color reaction. Conditions recommended by the manufacturer are employed.
Reaction conditions: Five microliter aliquots of each compound prepared fresh at the time of the assay are added as a solution in lOmM HEPES pH 7.5, 10% DMSO to the reaction well. Thirty-five microliters of reaction mix containing Src, buffer and peptide/bovine serum albumin mix are added to the compound wells and incubated at 30° C. for 10 minutes (reaction buffer: 5 OmM TrisHCI pH 7.5, l0 mM MgCl2, O.lmM EGTA, 0.5 mM Na3 VO4)-1H-. The reaction is started by addition of 10 microliters of ATP, incubated at 30° C. for 1 hour, and stopped by addition of 20 microliters of 0.5 M EDTA. The reaction mixture with the phosphorylated peptide is then transferred to a streptavidin-coated microtiter plate (provided in the kit) and allowed to bind for 20 minutes. IUnbound peptide and reaction mixture is decanted and the plate is washed with PBS six times. HRP-conjugated phosphotyrosine antibody supplied in the kit is incubated with the plate for one hour, then decanted. The plate is again washed with PBS six times.
Activity is determined as % inhibition as calculated by the formula: (1−Abs/Abs(max) ) ×100=% inhibition.

[1] = target: Rat2 fibroblasts stably transformed with v-Src/Hu c-Src fusion gene (Homo sapiens, UniProt P12931, cells depend on it, form not given); experiment: Anchorage Independent Src-transformed Fibroblast Proliferation Assay; assay type: cell-based, Rat; settings: suspension growth, MTS reagent on Day 5; read-out: anch-indep src-tx fib IC50
Experimental: Anchorage Independent Src-transformed Fibroblast Proliferation Assay
Rat2 fibroblasts stably transformed with a plasmid containing a CMV promotor controlled v-Src/Hu c-Src fusion gene in which the catalytic domain of human c-Src was inserted in place of the v-Src catalytic domain in the v-Src gene are used for the measurement of src dependent suspension growth. […] Multiple entries for a given compound indicate that it was tested multiple times.

Compound | pIC50 (Src) | GI50 [1] | melting point
(E)-3-[3-Cyano-4-(2,4-dichloro-5-methoxyanilino)-7-quinolinyl]-2-propenoic acid [Example 99] | 7.36 | > 10 µM | 
COc1cc(Nc2c(C#N)cnc3cc(-c4ccc(-c5nnn[nH]5)cc4)ccc23)c(Cl)cc1Cl [Example 105] | 8.00 | > 10 µM and 5.9 µM | 
COc1cc(Nc2c(C#N)cnc3cc(/C=C/c4ccccn4)ccc23)c(Cl)cc1Cl [Example 3, 4-(2,4-Dichloro-S-methoxyanilino)-7-[(E)-2-(2-pyrdinyl)ethenyl]-3-quinoline-carbonitrile] | 7.96 |  | 
COc1cc(Nc2c(C#N)cnc3cc(-n4cccc4)c(OC)cc23)c(Cl)cc1Cl [Example 59, 4-(2,4-Dichloro-5-methoxyanilino)-6-methoxy-7-(1H-pyrrol-1-yl)-3-quinolinecarbonitrile] | 7.92 and 7.82 |  | 229 to 230 °C
N#Cc1cnc2cc(C=CCCCCN3CCOCC3)ccc2c1Nc1ccc(Cl)cc1Cl (mixture of isomers) [Example 16, 4-(2,4-Dichloroanilino)-7-[(E/Z)-6-(4-morpholinyl)-1-hexenyl]-3-quinolinecarbonitrile] |  | > 10 µM | 128 to 130 °C
COc1cc(Nc2c(C#N)cnc3cc(-c4ccc(C5OCCO5)o4)ccc23)c(Cl)cc1Cl [Example 5, 4-(2,4-dichloro-5-methoxyanilino)-7-[5-(1,3-dioxolan-2-yl)-2-furyl]-3-quinolinecarbonitrile] |  | 0.2 µM | 224 to 229 °C
N#Cc1cnc2cc(-c3ccc(CCN4CCOCC4)s3)ccc2c1Nc1ccc(Cl)cc1Cl [Example 9, 4-(2,4-Dichloroanilino)-7-{5-[2-(4-morpholinyl)ethyl]-2-thienyl}-3-quinoline-carbonitrile] |  | 2.7 µM | 168 to 169 °C
COc1cc(Nc2c(C#N)cnc3cc(-c4cccc(N)c4)ccc23)c(Cl)cc1Cl [Example 174, 7-(3-Aminophenyl)-4-[(2,4-dichloro-5-methoxyphenyl)amino]-3-quinolinecarbonitrile] |  | 5.6 µM | 221 to 222 °C
COc1cc(Nc2c(C#N)cnc3cc(-c4ccc(CN5CCSCC5)cc4)ccc23)c(Cl)cc1Cl [Example 153, 4-[(2,4-Dichloro-5-methoxyphenyl)amino]-7-[4-(4-thiomorpholinylmethyl)phenyl]-3-quinolinecarbonitrile] |  | 2.8 µM and 2.7 µM | 216 to 219 °C
CCN(CC)Cc1ccc(-c2ccc3c(Nc4cc(OC)c(Cl)cc4Cl)c(C#N)cnc3c2)cc1 [Example 87, 4-(2,4-Dichloro-5-methoxyanilino)-7-{4-[(diethylamino)methyl]phenyl}-3-quinolinecarbonitrile] |  | 0.22 µM | 191 to 195 °C
COc1cc(Nc2c(C#N)cnc3cc(-c4ccc(CO)n4C)ccc23)c(Cl)cc1Cl [Example 162, 4-(2,4-Dichloro-5-methoxyanilino)-7-[5-(hydroxymethyl)-1-methyl-lH-pyrrol-2-yl]-3-quinolinecarbonitrile] |  | > 10 µM | 175 °C (dec.)
COc1cc(Nc2c(C#N)cnc3cc(C#Cc4ccc(C)cc4)ccc23)c(Cl)cc1Cl [Example 141, 4-(2,4-Dichloro-5-methoxyanilino)-7-[2-(4-methylphenyl)ethynyl]-3-quinolinecarbonitrile] |  | > 10 µM | 223 to 225 °C
COc1cc(Nc2c(C#N)cnc3cc(-c4cccc(NC(C)=O)c4)ccc23)c(Cl)cc1Cl [Example 118, N-{3-[3-Cyano-4-(2,4-dichloro-5-methoxyanilino)-7-quinolinyl]phenyl}acetamide] |  | 3 µM | 262 to 263 °C
COc1cc(Nc2c(C#N)cnc3cc(-c4ccc(C=O)o4)ccc23)c(Cl)cc1Cl [Example 6, 4-(2,4-Dichloro-5-methoxyanilino)-7-(5-formyl-2-furyl)-3-quinolinecarbonitrile] |  | 1.6 µM | > 250 °C
COc1cc(Nc2c(C#N)cnc3cc(-c4ccc(CN(C)C)cc4)ccc23)c(Cl)cc1Cl [Example 86, 4-(2,4-dichloro-5-methoxyanilino)-7-{4-[(dimethylamino)methyl]phenyl}-3-quinolinecarbonitrile] |  | 0.21 µM | 187 to 189 °C
COc1cc(Nc2c(C#N)cnc3cc(-c4sccc4C=O)ccc23)c(Cl)cc1Cl [Example 163, 4-(2,4-Dichloro-5-methoxyanilino)-7-(3-formyl-2-thienyl)-3-quinolinecarbonitrile] |  | > 10 µM | 231 to 232 °C
CN(C)CC#Cc1ccc2c(Nc3ccc(Cl)cc3Cl)c(C#N)cnc2c1 [Example 15, 4-(2,4-dichloroanilino)-7-[3-(dimethylamino)-1-propynyl]-3-quinolinecarbonitrile] |  | > 10 µM | 144 to 145 °C
COc1cc(Nc2c(C#N)cnc3cc(-c4ccc(CNCCS(C)(=O)=O)cc4)ccc23)c(Cl)cc1Cl [Example 88, 4-(2,4-dichloro-5-methoxyanilino)-7-[4-({[2-(methylsulfonyl)ethyl]amino}methyl)phenyl]-3-quinolinecarbonitrile] |  | 0.85 µM | 245 to 246 °C
COc1cc(Nc2c(C#N)cnc3cc(-c4ccc(CN5CCOCC5)o4)ccc23)c(Cl)cc1Cl [Example 53, 4-(2,4-Dichloro-5-methoxyanilino)-7-[5-(4-morpholinylmethyl)-2-furyl]-3-quinolinecarbonitrile] |  | 0.25 µM | 182 to 183 °C
COc1cc(Nc2c(C#N)cnc3cc(C#CCO)ccc23)c(Cl)cc1Cl [Example 143, 4-(2,4-Dichloro-5-methoxyanilino)-7-(3-hydroxy-1-propynyl)-3-quinolinecarbonitrile] |  | > 10 µM | 245 °C (dec.)
COc1cc(Nc2c(C#N)cnc3cc(-c4ccc(CN5CCOCC5)n4C)ccc23)c(Cl)cc1Cl [Example 70, 4-(2,4-Dichloro-5-methoxyanilino)-7-[1-methyl-5-(4-morpholinylmethyl)-1H-pyrrol-2-yl]-3-quinolinecarbonitrile] |  | 6 µM | 208 to 210 °C
N#Cc1cnc2cc(-c3ccc(CN4CCOCC4)o3)ccc2c1Nc1ccc(Cl)cc1Cl [Example 13, 4-(2,4-Dichloroanilino)-7-[5-(4-morpholinylmethyl)-2-furyl]-3-quinolinecarbonitrile] |  | 1.51 µM and 1.59 µM | 118 to 120 °C
COc1cc(Nc2c(C#N)cnc3cc(-c4ccc(C=O)s4)ccc23)c(Cl)cc1Cl [Example 52, 4-(2,4-dichloro-5-methoxyanilino)-7-(5-formyl-2-thienyl)-3-quinolinecarbonitrile] | 7.96 |  | > 300 °C (dec.)
COc1cc(Nc2c(C#N)cnc3cc(-c4ccc(CNCCS(C)(=O)=O)n4C)ccc23)c(Cl)cc1Cl [Example 73, 4-(2,4-dichloro-5-methoxyanilino)-7-[1-methyl-5-({[2-(methylsulfonyl)ethyl]amino}-methyl)-1H-pyrrol-2-yl]-3-quinolinecarbonitrile] |  | > 10 µM | 160 to 164 °C
COc1ccc(/C=C/c2ccc3c(Nc4cc(OC)c(Cl)cc4Cl)c(C#N)cnc3c2)cc1 [Example 54, 4-(2,4-Dichloro-5-methoxyanilino)-7-[(E)-2-(4-methoxyphenyl)ethenyl]-3-quinolinecarbonitrile] |  | > 10 µM | 216 to 220 °C
N#Cc1cnc2cc(C#CCCCN3CCOCC3)ccc2c1Nc1ccc(Cl)cc1Cl [Example 11, 4-(2,4-Dichloroanilino)-7-[5-(4-morpholinyl)-1-pentynyl]-3-quinolinecarbonitrile] |  | > 10 µM | 131 to 133 °C
CCOC(=O)C1CCCCN1Cc1ccc(-c2ccc3c(Nc4cc(OC)c(Cl)cc4Cl)c(C#N)cnc3c2)cc1 (stereo not drawn) [Example 145, Ethyl 1-{4-[3-cyano-4-(2,4-dichloro-5-methoxyanilino)-7-quinolinyl]benzyl}-2-piperidinecarboxylate] |  | > 10 µM | 78 to 80 °C
COc1cc(Nc2c(C#N)cnc3cc(-c4ccc(N5CCOCC5)cc4)ccc23)c(Cl)cc1Cl [Example 67, 4-(2,4-Dichloro-5-methoxyanilino)-7-[4-(4-morpholinyl)phenyl]-3-quinolinecarbonitrile] |  | 0.11 µM | 235 to 237 °C
COc1cc(Nc2c(C#N)cnc3cc(-c4ccc(CO)cc4)ccc23)c(Cl)cc1Cl [Example 101, 4-(2,4-Dichloro-5-methoxyanilino)-7-[4-(hydroxymethyl)phenyl]-3-quinolinecarbonitrile] |  | > 10 µM | 264 to 267 °C
